# In patent publication US9150566B2, “2-(1,2,3-triazol-2-yl)benzamide and 3-(1,2,3-triazol-2-YL)picolinamide derivatives as orexin receptor antagonists” (ACTELION PHARMACEUTICALS LTD., priority 2011, dated 2015):
# Legend:
# CYP3A4 = CYP3A4 (Homo sapiens (Human), UniProt P08684); test: CYP3A4 inhibition assay (human liver microsomes, testosterone 6β-hydroxylation); settings: read-out: CYP3A4 IC50, 40 μM testosterone
# Method: The CYP3A4 inhibition assay was performed using human liver microsomes and testosterone 6β-hydroxylation as a P450 isoform-specific marker. In a total volume of 150 μL, ^14C-testosterone at a final concentration of 40 μM in a 100 mM phosphate buffer (pH 7.4) was incubated in a 96-well plate with 0.3 mg/mL of human liver microsomes in an Eppendorf thermomixer at 37° C. and 400 rpm. […] The reaction was initiated by addition of 15 μL of the NADPH-regenerating system containing the glucose-6-phosphate dehydrogenase and terminated after 7 min with a 75 μL-aliquot of methanol. After centrifugation at 465 g and 4° C. for 20 min, a 50 μL-aliquot of the supernatant was submitted to HPLC according to the method described below. The total concentration of DMSO in the assay including controls without inhibitor was 1%.
# Nicardipine was run in parallel as a reference inhibitor of CYP3A4 activity at final concentrations of 0, 0.1, 0.5, 1.0, 5.0, 10, 25, and 50 μM. Stock solutions thereof were prepared in DMSO.
# The chromatographic separation of testosterone and 6β-hydroxytestosterone was achieved on a Phenomenex Luna C18(2) column (5 μm, 2.0×10 mm) at RT with a flow rate of 0.6 mL/min. Mobile phases consisted of 1% aqueous formic acid (phase A) and methanol (phase B) using a gradient method with 0.9 min total run time.
# The quantification of 6β-hydroxytestosterone was carried out using a quadrupole mass spectrometer equipped with an ionspray interface operating in positive ion mode. The parameters of the mass detector were set as follows: capillary voltage 5 kV, auxiliary gas 40 psi, collision gas 3 mTorr, and transfer capillary temperature 420° C.
# human orexin-1 receptor = human orexin-1 receptor (Homo sapiens (Human), UniProt O43613); test: In vitro intracellular calcium measurements (FLIPR), antagonistic activity on orexin-1 receptor; type: cell-based; settings: CHO cells expressing human orexin-1 receptor; FLIPR; 3 nM orexin-A agonist; 120 min antagonist incubation; geometric mean if determined several times; read-out: IC50 OX1
# Chain of human orexin-1 receptor (O43613 whole entry): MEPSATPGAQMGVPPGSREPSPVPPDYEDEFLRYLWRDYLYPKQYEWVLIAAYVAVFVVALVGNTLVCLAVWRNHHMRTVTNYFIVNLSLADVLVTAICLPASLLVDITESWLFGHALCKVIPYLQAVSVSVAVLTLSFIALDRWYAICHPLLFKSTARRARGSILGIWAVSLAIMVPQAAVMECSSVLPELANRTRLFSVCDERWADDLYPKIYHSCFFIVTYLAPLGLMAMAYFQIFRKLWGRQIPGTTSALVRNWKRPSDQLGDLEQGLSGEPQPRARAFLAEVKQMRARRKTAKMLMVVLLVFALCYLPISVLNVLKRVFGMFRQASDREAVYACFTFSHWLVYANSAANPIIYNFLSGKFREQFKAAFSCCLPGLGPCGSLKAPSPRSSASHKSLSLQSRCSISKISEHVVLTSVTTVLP
# Method: (§1) In Vitro Assay: Intracellular Calcium Measurements:
# (§2) Chinese hamster ovary (CHO) cells expressing the human orexin-1 receptor and the human orexin-2 receptor, respectively, are grown in culture medium (Ham F-12 with L-Glutamine) containing 300 μg/mL G418, 100 U/mL penicillin, 100 μg/mL streptomycin and 10% heat inactivated fetal calf serum (FCS). The cells are seeded at 20′000 cells/well into 384-well black clear bottom sterile plates (Greiner). The seeded plates are incubated overnight at 37° C. in 5% CO2.
# (§3) Within the Fluorescent Imaging Plate Reader (FLIPR Tetra, Molecular Devices), antagonists are added to the plate in a volume of 10 μL/well, incubated for 120 min and finally 10 μL/well of agonist is added. Fluorescence is measured for each well at 1 second intervals, and the height of each fluorescence peak is compared to the height of the fluorescence peak induced by 3 nM orexin-A with vehicle in place of antagonist. […] Optimized conditions were achieved by adjustment of pipetting speed and cell splitting regime. The calculated IC50 values may fluctuate depending on the daily cellular assay performance. Fluctuations of this kind are known to those skilled in the art.
# human orexin-2 receptor = human orexin-2 receptor (Homo sapiens (Human), UniProt O43614); test: In vitro intracellular calcium measurements (FLIPR), antagonistic activity on orexin-2 receptor; type: cell-based; settings: CHO cells expressing human orexin-2 receptor; FLIPR; 3 nM orexin-A agonist; 120 min antagonist incubation; geometric mean if determined several times; read-out: IC50 OX2
# Chain of human orexin-2 receptor (O43614 whole entry): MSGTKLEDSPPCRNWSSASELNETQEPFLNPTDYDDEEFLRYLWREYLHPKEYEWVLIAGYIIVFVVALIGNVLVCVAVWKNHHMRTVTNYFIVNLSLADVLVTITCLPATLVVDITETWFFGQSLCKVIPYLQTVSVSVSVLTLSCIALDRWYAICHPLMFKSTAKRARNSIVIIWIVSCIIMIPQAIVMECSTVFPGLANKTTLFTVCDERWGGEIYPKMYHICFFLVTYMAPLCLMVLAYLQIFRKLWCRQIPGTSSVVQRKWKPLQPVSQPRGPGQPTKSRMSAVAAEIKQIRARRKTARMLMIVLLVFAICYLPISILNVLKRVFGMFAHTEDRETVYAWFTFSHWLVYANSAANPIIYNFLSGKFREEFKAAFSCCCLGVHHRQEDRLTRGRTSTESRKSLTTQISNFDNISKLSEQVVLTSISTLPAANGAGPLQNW
# Method: as §1, §2, §3
# Chain of CYP3A4 (P08684 whole entry): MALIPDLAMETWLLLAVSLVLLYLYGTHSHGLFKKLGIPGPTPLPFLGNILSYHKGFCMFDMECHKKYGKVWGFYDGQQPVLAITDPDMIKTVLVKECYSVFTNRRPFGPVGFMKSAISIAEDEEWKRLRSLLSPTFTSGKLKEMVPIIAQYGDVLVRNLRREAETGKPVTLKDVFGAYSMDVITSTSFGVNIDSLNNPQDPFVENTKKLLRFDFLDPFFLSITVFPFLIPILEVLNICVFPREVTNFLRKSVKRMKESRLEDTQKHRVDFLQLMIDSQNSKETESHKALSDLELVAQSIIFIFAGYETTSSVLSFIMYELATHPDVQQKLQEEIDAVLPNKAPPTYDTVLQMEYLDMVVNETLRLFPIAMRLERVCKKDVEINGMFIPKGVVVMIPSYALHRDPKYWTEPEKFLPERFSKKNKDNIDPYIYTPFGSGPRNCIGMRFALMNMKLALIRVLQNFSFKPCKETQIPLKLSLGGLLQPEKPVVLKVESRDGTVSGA
Structure (SMILES),IC50 (CYP3A4) [nM],IC50 (human orexin-1 receptor) [nM],IC50 (human orexin-2 receptor) [nM]
"COc1ccc(C[C@@H]2COCCN2C(=O)c2ccccc2-n2nccn2)cc1-c1ccccn1 [Example 3, [(R)-3-(4-Methoxy-3-pyridin-2-yl-benzyl)-morpholin-4-yl]-(2-[1,2,3]triazol-2-yl-phenyl)-methanone]",21000,4,3340
"COc1ccc(C[C@@H]2COCCN2C(=O)c2ccccc2-n2nccn2)cc1-c1cccnc1 [Example 4, [(R)-3-(4-Methoxy-3-pyridin-3-yl-benzyl)-morpholin-4-yl]-(2-[1,2,3]triazol-2-yl-phenyl)-methanone]",1200,6,1880
COc1ccc(C[C@@H]2COCCN2C(=O)c2ccccc2-n2nccn2)cc1-c1cnccn1 [Example 6],26000,12,1940
"COc1ccc(C[C@@H]2COCCN2C(=O)c2ccccc2-n2nccn2)cc1-c1cccnn1 [Example 7, [(R)-3-(4-Methoxy-3-pyridazin-3-yl-benzyl)-morpholin-4-yl]-(2-[1,2,3]triazol-2-yl-phenyl)-methanone]",> 50000,26,6090
"COc1ccc(C[C@@H]2COCCN2C(=O)c2ccccc2-n2nccn2)cc1-c1nccs1 [Example 8, [(R)-3-(4-Methoxy-3-thiazol-2-yl-benzyl)-morpholin-4-yl]-(2-[1,2,3]triazol-2-yl-phenyl)-methanone]",3200,1,335
"COc1ccc(C[C@@H]2COCCN2C(=O)c2ccccc2-n2nccn2)cc1-c1ncco1 [Example 9, [(R)-3-(4-Methoxy-3-oxazol-2-yl-benzyl)-morpholin-4-yl]-(2-[1,2,3]triazol-2-yl-phenyl)-methanone]",8400,2,468
"COc1ccc(C[C@@H]2COCCN2C(=O)c2ccccc2-n2nccn2)cc1-n1cccn1 [Example 14, [(R)-3-(4-Methoxy-3-pyrazol-1-yl-benzyl)-morpholin-4-yl]-(2-[1,2,3]triazol-2-yl-phenyl)-methanone]",> 50000,3,905
"Cc1ccc(-n2nccn2)c(C(=O)N2CCOC[C@H]2Cc2cccc(-n3ccnn3)c2)c1 [Example 15, (5-Methyl-2-[1,2,3]triazol-2-yl-phenyl)-[(R)-3-(3-[1,2,3]triazol-1-yl-benzyl)-morpholin-4-yl]-methanone]",14000,24,3160
"Cc1ccc(-n2nccn2)c(C(=O)N2CCOC[C@H]2Cc2cccc(-n3cccn3)c2)c1 [Example 19, (5-Methyl-2-[1,2,3]triazol-2-yl-phenyl)-[(R)-3-(3-pyrazol-1-yl-benzyl)-morpholin-4-yl]-methanone]",32000,2,369
"O=C(c1cc(F)ccc1-n1nccn1)N1CCOC[C@H]1Cc1cccc(-n2cccn2)c1 [Example 20, (5-Fluoro-2-[1,2,3]triazol-2-yl-phenyl)-[(R)-3-(3-pyrazol-1-yl-benzyl)-morpholin-4-yl]-methanone]",25000,25,1530
"Cc1ccc(C(=O)N2CCOC[C@H]2Cc2cccc(-n3cccn3)c2)c(-n2nccn2)c1 [Example 22, (4-Methyl-2-[1,2,3]triazol-2-yl-phenyl)-[(R)-3-(3-pyrazol-1-yl-benzyl)-morpholin-4-yl]-methanone]",41000,3,318
"Cc1ccc(-n2nccn2)c(C(=O)N2CCOC[C@H]2Cc2cccc(-n3cncn3)c2)c1 [Example 23, (5-Methyl-2-[1,2,3]triazol-2-yl-phenyl)-[(R)-3-(3-[1,2,4]triazol-1-yl-benzyl)-morpholin-4-yl]-methanone]",6000,34,4780
"O=C(c1cc(F)ccc1-n1nccn1)N1CCOC[C@H]1Cc1cccc(-n2nccn2)c1 [Example 26, (5-Fluoro-2-[1,2,3]triazol-2-yl-phenyl)-[(R)-3-(3-[1,2,3]triazol-2-yl-benzyl)-morpholin-4-yl]-methanone]",24000,21,822
"Cc1ccc(-n2nccn2)c(C(=O)N2CCOC[C@H]2Cc2cccc(-c3ccncc3)c2)c1 [Example 28, (5-Methyl-2-[1,2,3]triazol-2-yl-phenyl)-[(R)-3-(3-pyridin-4-yl-benzyl)-morpholin-4-yl]-methanone]",300,43,2110
O=C(c1ccccc1-n1nccn1)N1CCC[C@H]1Cc1cccc(-n2nccn2)c1 [Ref. 1],5500,4,–

# More lines, now with the values ahead:
IC50 (CYP3A4) [nM],IC50 (human orexin-1 receptor) [nM],IC50 (human orexin-2 receptor) [nM],Structure (SMILES)
> 50000,40,803,"O=C(c1ccccc1-n1nccn1)N1CCOC[C@H]1Cc1cccc(-c2ncon2)c1 [Example 1, [(R)-3-(3-[1,2,4]Oxadiazol-3-yl-benzyl)-morpholin-4-yl]-(2-[1,2,3]triazol-2-yl-phenyl)-methanone]"
43000,7,406,"Cc1ccc(-n2nccn2)c(C(=O)N2CCOC[C@H]2Cc2cccc(-c3ncon3)c2)c1 [Example 2, (5-Methyl-2-[1,2,3]triazol-2-yl-phenyl)-[(R)-3-(3-[1,2,4]oxadiazol-3-yl-benzyl)-morpholin-4-yl]-methanone]"
> 50000,4,2950,"COc1ccc(C[C@@H]2COCCN2C(=O)c2ccccc2-n2nccn2)cc1-c1ncccn1 [Example 5, [(R)-3-(4-Methoxy-3-pyrimidin-2-yl-benzyl)-morpholin-4-yl]-(2-[1,2,3]triazol-2-yl-phenyl)-methanone]"
33000,2,396,"Cc1ccc(-n2nccn2)c(C(=O)N2CCOC[C@H]2Cc2cccc(-c3ncccn3)c2)c1 [Example 17, (5-Methyl-2-[1,2,3]triazol-2-yl-phenyl)-[(R)-3-(3-pyrimidin-2-yl-benzyl)-morpholin-4-yl]-methanone]"
39000,22,1890,"O=C(c1ccccc1-n1nccn1)N1CCOC[C@H]1Cc1cccc(-c2ncccn2)c1 [Example 18, [(R)-3-(3-Pyrimidin-2-yl-benzyl)-morpholin-4-yl]-(2-[1,2,3]triazol-2-yl-phenyl)-methanone]"
> 50000,3,1030,"Cc1ccc(-n2nccn2)c(C(=O)N2CCOC[C@H]2Cc2cccc(-c3ccccn3)c2)c1 [Example 24, (5-Methyl-2-[1,2,3]triazol-2-yl-phenyl)-[(R)-3-(3-pyridin-2-yl-benzyl)-morpholin-4-yl]-methanone]"
25000,7,–,"Cc1cccc(C(=O)N2CCOC[C@H]2Cc2cccc(-c3ncon3)c2)c1-n1nccn1 [Example 83, (3-Methyl-2-[1,2,3]triazol-2-yl-phenyl)-[(R)-3-(3-[1,2,4]oxadiazol-3-yl-benzyl)-morpholin-4-yl]-methanone]"
> 50000,–,839,"Cc1ccc(C(=O)N2C[C@@H](C)OC[C@H]2Cc2cccc(-c3ncccn3)c2)c(-n2nccn2)c1C [Example 112, (3,4-Dimethyl-2-[1,2,3]triazol-2-yl-phenyl)-[(2R,5R)-2-methyl-5-(3-pyrimidin-2-yl-benzyl)-morpholin-4-yl]-methanone]"
28000,–,171,"Cc1ccc(-n2nccn2)c(C(=O)N2C[C@@H](C)OC[C@H]2Cc2cc(-c3ncccn3)ccc2F)c1 [Example 147, [(2R,5R)-5-(2-Fluoro-5-pyrimidin-2-yl-benzyl)-2-methyl-morpholin-4-yl]-(5-methyl-2-[1,2,3]triazol-2-yl-phenyl)-methanone]"
18000,–,85,"C[C@@H]1CN(C(=O)c2ccc(Cl)cc2-n2nccn2)[C@H](Cc2cc(-c3ncccn3)ccc2F)CO1 [Example 153, (4-Chloro-2-[1,2,3]triazol-2-yl-phenyl)-[(2R,5R)-5-(2-fluoro-5-pyrimidin-2-yl-benzyl)-2-methyl-morpholin-4-yl]-methanone]"
30000,–,371,"Cc1ccc(-n2nccn2)c(C(=O)N2CCOC[C@H]2Cc2cc(-c3ncccn3)ccc2F)c1 [Example 155, [(R)-3-(2-Fluoro-5-pyrimidin-2-yl-benzyl)-morpholin-4-yl]-(5-methyl-2-[1,2,3]triazol-2-yl-phenyl)-methanone]"
40000,–,2260,"Cc1ccc(C(=O)N2CCOC[C@H]2Cc2cc(-c3ncccn3)ccc2F)c(-n2nccn2)c1C [Example 158, (3,4-Dimethyl-2-[1,2,3]triazol-2-yl-phenyl)-[(R)-3-(2-fluoro-5-pyrimidin-2-yl-benzyl)-morpholin-4-yl]-methanone]"
17000,–,268,"O=C(c1ccc(Cl)cc1-n1nccn1)N1CCOC[C@H]1Cc1cc(-c2ncccn2)ccc1F [Example 160, (4-Chloro-2-[1,2,3]triazol-2-yl-phenyl)-[(R)-3-(2-fluoro-5-pyrimidin-2-yl-benzyl)-morpholin-4-yl]-methanone]"
